Experiments:
p70 S6 kinase = experiment: Western blot, p70 S6 kinase activation (phosphorylated/total); format: cell-based, human; conditions: SH-SY5Y cells, 24 h; one range given for the three compounds together
Method: (§1) SH-SY5Y cells were seeded in 12-well plates and treated with laxaphycins for 24 h. Next, cells were washed with PBS and lysis buffer (50mM Tris HCl, 150 mM NaCl, 1mM EDTA and 1% Triton x-100, supplemented with a complete phosphatase/protease inhibitor cocktail) was added to each well. Cells were scrapped, sonicated and centrifuged at 13,000 rpm at 4 °C for 20 min.
(§2) In both cases, the supernatant was collected as the cytosolic fraction and quantified with the Bradford method. Samples containing 15 µg were used for electrophoresis, resolved in 4–20% sodium dodecyl sulphate polyacrylamide gel (Biorad, Madrid, Spain). Proteins were transferred to PVDF membranes (Merck Millipore) with a Trans-Blot® semi-dry transfer cell (Biorad). Membrane blocking and antibody incubation was performed in Snap i.d. system (Merck Millipore). Protein bands were detected with Supersignal West Pico Luminiscent Substrate and Supersignal West Femto Maximum Sensitivity Substrate (Thermo Fisher Scientific). Chemiluminiscence was determined with Diversity GeneSnap system and software (Syngene). LC3 II/I was detected with the primary antibody anti-LC3 II/I (1:1000, Abcam), the primary antibody anti-pmTOR (Ser2448) (1:1000, Merck Millipore) was used to recognize phospho-mTOR and the total levels of the kinase were determined with anti-mTOR antibody (1:10000, Abcam), beclin-1 was detected with anti-beclin-1 primary antibody (1:1000, Merck Millipore), p62 was quantified with anti-p62 antibody (1:1000, Merck Millipore), anti-phospho-p70 S6 kinase (Thr389) (1:1000, Merck Millipore) was used to detect phospho- p70 and the total levels were quantified using anti-p70 S6 kinase antibody (1:1000, Merck Millipore), anti-phospho-AMPK (Thr172) (1:500, Merck Millipore) was used to recognize the phosphorylated state of the kinase, and the total expression of the enzyme was detected with anti-AMPK antibody (1:500, Merck Millipore). Protein levels were normalized using β-Actin (1:20,000, Millipore). Baf A1 (0.001 µM), Rap (0.1 µM) and Comp C (1 µM) were used as controls for autophagic flux measurements. […]

beclin 1 = experiment: Western blot, beclin 1 expression; format: cell-based, human; conditions: SH-SY5Y cells, 24 h; Rap 0.1 µM
Method: as §1
In both cases, the supernatant was collected as the cytosolic fraction and quantified with the Bradford method. Samples containing 15 µg were used for electrophoresis, resolved in 4–20% sodium dodecyl sulphate polyacrylamide gel (Biorad, Madrid, Spain). Proteins were transferred to PVDF membranes (Merck Millipore) with a Trans-Blot® semi-dry transfer cell (Biorad). Membrane blocking and antibody incubation was performed in Snap i.d. system (Merck Millipore). Protein bands were detected with Supersignal West Pico Luminiscent Substrate and Supersignal West Femto Maximum Sensitivity Substrate (Thermo Fisher Scientific). Chemiluminiscence was determined with Diversity GeneSnap system and software (Syngene). LC3 II/I was detected with the primary antibody anti-LC3 II/I (1:1000, Abcam), the primary antibody anti-pmTOR (Ser2448) (1:1000, Merck Millipore) was used to recognize phospho-mTOR and the total levels of the kinase were determined with anti-mTOR antibody (1:10000, Abcam), beclin-1 was detected with anti-beclin-1 primary antibody (1:1000, Merck Millipore), p62 was quantified with anti-p62 antibody (1:1000, Merck Millipore), anti-phospho-p70 S6 kinase (Thr389) (1:1000, Merck Millipore) was used to detect phospho- p70 and the total levels were quantified using anti-p70 S6 kinase antibody (1:1000, Merck Millipore), anti-phospho-AMPK (Thr172) (1:500, Merck Millipore) was used to recognize the phosphorylated state of the kinase, and the total expression of the enzyme was detected with anti-AMPK antibody (1:500, Merck Millipore). Protein levels were normalized using β-Actin (1:20,000, Millipore). Baf A1 (0.001 µM), Rap (0.1 µM) and Comp C (1 µM) were used as controls for autophagic flux measurements. All the experiments were performed at least three times in duplicate.

AMPK = experiment: Western blot, AMPK activation (phosphorylated/total); format: cell-based, human; conditions: SH-SY5Y cells, 24 h; Comp C 1 µM
Method: as §1
(§3) In both cases, the supernatant was collected as the cytosolic fraction and quantified with the Bradford method. Samples containing 15 µg were used for electrophoresis, resolved in 4–20% sodium dodecyl sulphate polyacrylamide gel (Biorad, Madrid, Spain). Proteins were transferred to PVDF membranes (Merck Millipore) with a Trans-Blot® semi-dry transfer cell (Biorad). Membrane blocking and antibody incubation was performed in Snap i.d. system (Merck Millipore). Protein bands were detected with Supersignal West Pico Luminiscent Substrate and Supersignal West Femto Maximum Sensitivity Substrate (Thermo Fisher Scientific). Chemiluminiscence was determined with Diversity GeneSnap system and software (Syngene). […]

[1] = tested on: SH-SY5Y human neuroblastoma cells; experiment: ATP levels (Luminescent ATP Detection Kit); format: cell-based; conditions: 0.001–10 µM; for ATP levels at 6 h, in words: 6 h incubation; for ATP levels at 24 h, in words: 24 h incubation
Method: ATP levels were determined with the Luminescent ATP Detection Kit (Abcam), following manufacturer´s instructions. Briefly, human neuroblastoma cells were cultured in 96-well plates at 5 × 10^4 cells per well. Cells were treated with compounds as described above during 6 and 24 h, Then, cells were lysed and 50 µL of substrate solution were added to each well. The plate was incubated for 5 min, and the luminescence was measured in a plate reader. Rot at 1 µM was used as positive control.

[2] = tested on: SH-SY5Y human neuroblastoma cells; experiment: LDH cytotoxicity assay (cell viability); format: cell-based; conditions: 24 h, 0.001–10 µM
Method: (§4) SH-SY5Y human neuroblastoma cell line was obtained from American Type Culture Collection (ATCC), number CRL2266. Cells were cultured in Dulbecco´s modified Eagle´s medium: Nutrient Mix F-12 (DMEM/F-12) with 10% fetal bovine serum (FBS), 1% glutamax, 100 U/mL penicillin and 100 µg/mL streptomycin. Cells were maintained at 37 °C in a humidified atmosphere of 5% CO2 and 95% air and dissociated weekly using 0.05% trypsin/EDTA. All the reagents were obtained from Thermo Fischer Scientific.
Cell viability was assessed with the LDH test. Cells were seeded in 96-well plates and exposed to different compound concentrations (0.001–10 µM). Cells were incubated with compounds at 37 °C in humidified 5% CO2/95% air atmosphere for 24 h. Quillaja bark saponin was used as cellular death control. Then, cell medium was collected and LDH release was evaluated. Pierce^TM LDH-Cytotoxicity Assay Kit (Thermo Fisher Scientific) was used for LDH determination. Absorbance was measured at 490 nm to determine LDH release to the medium. Experiments were carried out in triplicate at least three independent times.

[3] = tested on: SH-SY5Y human neuroblastoma cells; experiment: Reactive oxygen species levels (carboxy-H2DCFDA); format: cell-based; conditions: 24 h, 0.001–10 µM
Method: ROS production was assessed with the fluorescence dye carboxy-H2DCFDA (5-(and-6)-carboxy-2′,7′-dichlorodihydrofluorescein diacetate). SH-SY5Y cells were seeded in 96-well plates and allowed to grow for 24 h. Then, cells were treated with laxaphycins (0.001–10 µM) for 24 h and ROS levels were measured. SH-SY5Y cells were washed twice with serum-free medium and loaded with 20 µM carboxy-H2DCFDA. Next, the plate was incubated for 1 h at 37 °C. After this time, phosphate buffered saline (PBS) was added to each well during 30 min. The fluorescence was read at 495 nm excitation and 527 nm emission. Experiments were carried out at least three times.

[4] = tested on: SH-SY5Y human neuroblastoma cells; experiment: Mitochondrial membrane potential (TMRM dye); format: cell-based; conditions: 24 h, 0.001–10 µM
Method: ∆Ψm was evaluated with TMRM assay as previously described. SH-SY5Y cells were seeded in 96-well plates at 5 × 10^4 cells per well. After 24 h, cells were treated with compounds (0.001–10 µM) for 24 h. Next, cells were washed twice with saline solution and incubated with 1 µM TMRM for 30 min. Then human neuroblastoma cells were solubilized with 50% DMSO–50% water. Fluorescence values were measured at 535 nm excitation, 590 nm emission with a plate reader. At least three independent replicates were performed in triplicate.

[5] = tested on: SH-SY5Y human neuroblastoma cells; experiment: MTT cell metabolic activity assay; format: cell-based; conditions: 24 h, 0.001–10 µM
Method: as §4
The effect of laxaphycins on cell metabolic activity was evaluated by MTT (3-(4, 5-dimethyl thiazol-2-yl)-2, 5-diphenyl tetrazolium bromide) assay. SH-SY5Y cells were cultured in 96-well plates and treated with compounds at concentrations ranging from 0.001 to 10 µM for 24 h. Next, cells were rinsed three times and incubated for 1 h with MTT (500 µg/mL) dissolved in saline buffer. MTT excess was washed and cells were disaggregated with 5% sodium dodecyl sulfate. Absorbance of the colored formazan salt was measured at 595 nm in a spectrophotometer plate reader. Cell death control signal was subtracted from the other data.

mTOR = experiment: Western blot, mTOR activation (phosphorylated/total); format: cell-based, human; conditions: SH-SY5Y cells, 24 h; Rap 0.1 µM
Method: as §1, §2

LC3 = experiment: Western blot, LC3II/I ratio; format: cell-based, human; conditions: SH-SY5Y cells, 24 h; Baf A1 0.001 µM, Rap 0.1 µM
Method: as §1, §3

[6] = tested on: SH-SY5Y human neuroblastoma cells; experiment: Annexin V-FITC / propidium iodide flow cytometry; format: cell-based; conditions: 24 h, 1 at 0.3 µM, 2 at 0.15 µM, STS at 0.01 µM, percentage of total cells, mean ± SEM of three experiments
Method: The Annexin V-FITC Apoptosis Detection Kit was used to determine the cell death produced by compounds as previously described. SH-SY5Y cells were seeded in 12-well plates at 1 × 10^6 per well and incubated for 24 h with laxaphycins. Then, cells were washed with PBS and resuspended in Annexin binding buffer containing Annexin V-FITC and PI. Cells were incubated for 15 min at room temperature, resuspended in PBS and filtered. The fluorescence was determined by flow cytometry using the ImageStreamMKII (Amnis Corporation, Luminex Corp, Austin, TX, USA). 10,000 events were analyzed with IDEAS Application 6.0 software (Amnis Corporation, Luminex Corp, Austin, TX, USA). STS (Sigma Aldrich) at 0.01 µM was used as control in this assay.

caspase 3 = experiment: Caspase 3 activity in cell lysates (EnzCheck kit); format: cell-based, human; conditions: SH-SY5Y cells, 24 h; STS 0.01 µM; percentage of control cells, mean ± SEM
Method: The detection of caspase 3 activity was carried out with the EnzCheck® Caspase-3 Assay Kit. Neuroblastoma cells were cultured in 12-well plates at 1 × 10^6 cells per well and treated with compounds. After 24 h, cells were lysed and an aliquot was collected to quantify protein concentration by the Bradford method. Then, the assay was performed following manufacturer’s instructions. Briefly, 50 µL of each sample were mixed with equal volume of Z-DEVD-AMC substrate and incubated for 30 min at room temperature. Then, fluorescence at 342 nm excitation and 441 nm emission was measured. Caspase 3 activity data were corrected by protein concentration values. STS (0.01 µM) was used as positive control.

Compound | Beclin 1 expression, in words (beclin 1) | ATP levels at 6 h, in words [1] | ATP levels at 24 h, in words [1] | Cytotoxicity / cell viability (LDH test), in words [2] | ROS levels (carboxy-H2DCFDA), in words [3] | Mitochondrial membrane potential (∆Ψm, TMRM), in words [4] | other results
[des-(Ala^4-Hle^5)] acyclolaxaphycin B3 [compound 6] | generated an increase in beclin1 expression | reduced ATP content at 6 h | recovering it after 24 h | did not show effects on cell survival | decreased ROS release |  | p70 S6 phosphorylation (p70 S6 kinase): 53.5%–78.6%; AMPK activation (phospho/total), in words (AMPK): the most active
acyclolaxaphycin B3 [compound 4] | generated an increase in beclin1 expression | diminishing ROS release and ATP levels at 6 h |  | did not display cytotoxicity at any of the concentrations tested | diminishing ROS release | depolarizing the mitochondrial membrane at 10 µM | p70 S6 phosphorylation (p70 S6 kinase): 53.5%–78.6%
[des-(Ala^4-Hle^5)] acyclolaxaphycin B [compound 5] | generated an increase in beclin1 expression | levels were reduced by 5 after a 6 h incubation | recovered at 24 h | did not show effects on cell survival | reduced ROS levels at the highest concentrations | depolarized the mitochondria | Cell metabolic activity (MTT), in words [5]: increased cell metabolic activity
acyclolaxaphycin B [compound 3] | generated an increase in beclin1 expression | reduction in ATP was observed at 6 h | recovered at 24 h, reaching levels of control cells | did not display cytotoxicity at any of the concentrations tested | reduced ROS and ATP levels at the highest concentrations | produced a decrease in ∆Ψm | Cell metabolic activity (MTT), in words [5]: significantly augmented cell metabolic activity at 0.1 and 1 µM
CO[C@H]1C[C@@H]2CC[C@@H](C)[C@@](O)(O2)C(=O)C(=O)N2CCCC[C@H]2C(=O)O[C@H]([C@H](C)C[C@@H]2CC[C@@H](O)[C@H](OC)C2)CC(=O)[C@H](C)/C=C(\C)[C@@H](O)[C@@H](OC)C(=O)[C@H](C)C[C@H](C)/C=C/C=C/C=C/1C [Rap, rapamycin, reference compound] | augmented its expression |  |  |  |  |  | mTOR activation (phospho/total), in words (mTOR): reduced mTOR activation; LC3II/I ratio, in words (LC3): increased LC3II/I ratio
CN[C@@H]1C[C@H]2O[C@@](C)([C@@H]1OC)n1c3ccccc3c3c4c(c5c6ccccc6n2c5c31)C(=O)NC4 [STS, staurosporine, reference compound] |  |  |  |  |  |  | Apoptotic cells (early and late, Annexin V positive) [6]: 63.3% ± 3.2%; Caspase 3 activity (caspase 3): 157.8% ± 6%
c1cc(-c2cnn3cc(-c4ccc(OCCN5CCCCC5)cc4)cnc23)ccn1 [Comp C, compound C, reference compound] |  |  |  |  |  |  | AMPK activation (phospho/total), in words (AMPK): inhibited kinase activity
CO/C1=C\C(C)=C\[C@@H](C)[C@@H](O)[C@@H](C)C/C(C)=C/C=C/[C@H](OC)[C@@H]([C@@H](C)[C@@H](O)[C@H](C)[C@@]2(O)C[C@@H](O)[C@H](C)[C@@H](C(C)C)O2)OC1=O [Baf A1, Bafilomycin A1] |  |  |  |  |  |  | LC3II/I ratio, in words (LC3): increased LC3II/I ratio
